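Briefly, cells in 96-well plates were exposed to five compound concentrations for 48 h, and endpoints were estimated by linear interpolation. At the GI50, growth is halved.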 Active and inactive are the calls of the source. No stated cut-off is given here; in the data, active = GI50 up to about 1.1 µM and inactive = higher.
Tests used:
Experiment in all cases: inhibition of tumour cell growth, NCI panel, 48 h
Malme-3M = system: Malme-3M
COLO 205 = system: COLO 205
ACHN = system: ACHN
NCI-H226 = system: NCI-H226
KM12 = system: KM12
OVCAR-8 = system: OVCAR-8
UO-31 = system: UO-31
K562 = system: K562
SF-539 = system: SF-539
SR = system: SR
SF-295 = system: SF-295
SK-OV-3 = system: SK-OV-3
MDA-MB-435 = system: MDA-MB-435
NCI-H23 = system: NCI-H23
HT-29 = system: HT-29
UACC-257 = system: UACC-257
NCI-H460 = system: NCI-H460
LOX IMVI = system: LOX IMVI
HCT-116 = system: HCT-116
DU-145 = system: DU-145

Measured: GI50

CN1CCOC(c2ccc(Cl)cc2)O1 (configuration not stated)
inactive: Malme-3M > 100 µM | COLO 205 > 100 µM | ACHN > 100 µM | NCI-H226 > 100 µM | KM12 > 100 µM | OVCAR-8 > 100 µM | UO-31 > 100 µM | K562 > 100 µM | SF-539 > 100 µM | SR > 100 µM | SF-295 > 100 µM | SK-OV-3 > 100 µM | MDA-MB-435 > 100 µM | NCI-H23 > 100 µM | HT-29 > 100 µM | UACC-257 > 100 µM | NCI-H460 > 100 µM

OCC(O)COc1ccc(F)cc1 (configuration not stated)
inactive: LOX IMVI > 100 µM | Malme-3M > 100 µM | COLO 205 > 100 µM | ACHN > 100 µM | NCI-H226 > 100 µM | KM12 > 100 µM | OVCAR-8 > 100 µM | UO-31 > 100 µM | HCT-116 > 100 µM | K562 > 100 µM | SF-539 > 100 µM | SR > 100 µM | SF-295 > 100 µM | SK-OV-3 > 100 µM | NCI-H23 > 100 µM | HT-29 > 100 µM | UACC-257 > 100 µM | NCI-H460 > 100 µM

Cc1ccc(C2C(C(=O)C(C)(C)C)N2S(=O)(=O)c2ccc(C)cc2)cc1 (configuration not stated)
inactive: LOX IMVI 22.4 µM | Malme-3M 23.2 µM | COLO 205 19.5 µM | NCI-H226 21.3 µM | KM12 34.5 µM | OVCAR-8 21.3 µM | UO-31 18.4 µM | DU-145 18.7 µM | HCT-116 18.7 µM | K562 25.3 µM | SF-539 14.9 µM | SF-295 41.6 µM | SK-OV-3 > 100 µM | MDA-MB-435 20.9 µM | NCI-H23 23.7 µM | HT-29 24.3 µM

C[C@@H]1OC(=O)/C(=C\N(C)C)[C@H]2CC(=O)N(CCc3cn(S(=O)(=O)C(F)(F)F)c4ccccc34)C[C@H]12
inactive: LOX IMVI > 100 µM | Malme-3M > 100 µM | COLO 205 > 100 µM | ACHN > 100 µM | NCI-H226 > 100 µM | KM12 > 100 µM | UO-31 > 100 µM | HCT-116 > 100 µM | K562 > 100 µM | SF-539 > 100 µM | SF-295 > 100 µM | SK-OV-3 > 100 µM | MDA-MB-435 > 100 µM | NCI-H23 > 100 µM | UACC-257 > 100 µM | NCI-H460 > 100 µM

O=P1(c2ccccc2)C2=CCC=CC2C(c2ccccc2)N1Cc1ccccc1 (configuration not stated)
inactive: Malme-3M 17.8 µM | COLO 205 15.5 µM | ACHN 16.7 µM | KM12 12.9 µM | OVCAR-8 19.6 µM | UO-31 12.4 µM | DU-145 17.5 µM | HCT-116 15.2 µM | K562 16.1 µM | SF-539 17.4 µM | SR 24.2 µM | SF-295 13.5 µM | SK-OV-3 17.1 µM | MDA-MB-435 15.6 µM | NCI-H23 12.3 µM | HT-29 11.6 µM | UACC-257 20.1 µM | NCI-H460 13 µM

CN(C)c1nc2nonc2nc1Nc1ccccc1
inactive: LOX IMVI > 100 µM | Malme-3M > 100 µM | COLO 205 > 100 µM | ACHN > 100 µM | NCI-H226 > 100 µM | OVCAR-8 > 100 µM | UO-31 > 100 µM | DU-145 > 100 µM | HCT-116 > 100 µM | K562 > 100 µM | SR > 100 µM | SF-295 > 100 µM | SK-OV-3 > 100 µM | NCI-H23 > 100 µM | HT-29 > 100 µM | UACC-257 > 100 µM | NCI-H460 > 100 µM

CC1(C)C[C@H]2C3=CC[C@@H]4[C@@]5(C)CC[C@H](O)C(C)(C)[C@@H]5CC[C@@]4(C)[C@]3(C)C[C@@H](O)[C@@]23C[C@@H]1OC3=O
inactive: LOX IMVI > 100 µM | Malme-3M > 100 µM | COLO 205 44.8 µM | ACHN > 100 µM | KM12 70.3 µM | OVCAR-8 > 100 µM | UO-31 > 100 µM | DU-145 > 100 µM | HCT-116 74 µM | K562 97.1 µM | SF-539 > 100 µM | SR > 100 µM | SF-295 74.6 µM | SK-OV-3 > 100 µM | MDA-MB-435 > 100 µM | NCI-H23 > 100 µM | HT-29 50.2 µM | UACC-257 > 100 µM | NCI-H460 70.3 µM

Cc1cc(C)c2c(O)cc(-c3ccc(F)cc3)nc2n1
inactive: LOX IMVI 45.6 µM | Malme-3M 42.9 µM | COLO 205 32.1 µM | ACHN 39.7 µM | NCI-H226 35.6 µM | KM12 20.7 µM | OVCAR-8 76.7 µM | UO-31 23.9 µM | DU-145 66.1 µM | K562 32.1 µM | SF-539 > 100 µM | SR 23.3 µM | SK-OV-3 87.9 µM | NCI-H23 38.6 µM | HT-29 39.2 µM | UACC-257 33.1 µM

Reference: ChEMBL document CHEMBL1201862, “PubChem BioAssay data set” (2004)
